Laboratory results as given in paper PMC2889824, “Structural Optimization and De Novo Design of Dengue Virus Entry Inhibitory Peptides” (PLoS Neglected Tropical Diseases, 2010).
Like-named read-outs stand apart in the source and are kept apart here. Where no end group is shown, it is not given here.

Key:
[1] = tested on: DENV-2 binding to LLC-MK2 cells; assay: Virus:cell binding inhibition assay (qRT-PCR); format: cell-based, dengue virus-2 (DENV-2); details: virus pre-incubated 1 h 4°C, bound to LLC-MK2 2 h 4°C, washed, compared to control virus without peptide
Description: Binding inhibition assays were modified from Thaisomboonsuk, et al.}. Briefly, LLC-MK2 monolayers were rinsed in 4°C DMEM containing 0.8% BSA and 25 mM HEPES, pH 7.5. Virus was incubated at 4°C with peptides, control anti-dengue serum, or heparan sulfate in DMEM/BSA/HEPES for one hour before adding to the monolayers for 2 hours at 4°C. Monolayers were rinsed 3 times with cold DMEM/BSA/HEPES media prior to RNA extraction using the Qiagen RNeasy mini kit (Valencia, CA) per manufacturers instructions. Quantitative, real time, reverse transcriptase polymerase chain reaction (qRT-PCR) was conducted utilizing the Roche Lightcycler RNA Master SYBR Green 1 qRT-PCR kit (Basel, Switzerland), using primers Den_F (TTAGAGGAGACCCCTCCC) and Den_R ([…]) from Chutinimitkul et al.}. and the following cycling conditions: 1 h at 61°C, 30 s at 95°C, followed by 45 cycles of: 5 s at 95°C, 20 s at 61°C, and 30 s at 72°C. Cp values were used to estimate infectious units according to a standard curve. Independent assays were repeated three times, in duplicate or triplicate.

DENV-2 strain NG-C [2] = format: cell-based, dengue virus-2 (DENV-2); details: for inhibition of DENV-2 infection (in words): DENV-2 NG-C, any concentration tested; for maximum inhibition: 24 h
Description: LLC-MK2 target cells were seeded at a density of 1×10^5 cells in each well of a 6-well plate 24 h prior to infection. Approximately 200 focus forming units (FFU) of virus were incubated with or without peptide in serum-free DMEM for 1 h at rt. Virus/peptide or virus/control mixtures were allowed to infect confluent target cell monolayers for 1 h at 37°C, with rocking every 15 m, after which time the medium was aspirated and overlaid with fresh DMEM/10% (v/v) FBS containing 0.85% (w/v) Sea-Plaque Agarose (Cambrex Bio Science, Rockland, ME) without rinsing. Cells with agar overlays were incubated at 4°C for 20 m to set the agar. Infected cells were then incubated at 37°C with 5% CO2 for 5 days. Infected cultures were fixed with 10% formalin overnight at 4°C, permeablized with 70% (v/v) ethanol for 20 m, and rinsed with phosphate buffered saline, pH 7.4 (PBS) prior to immunostaining. Virus foci were detected using a specific mouse mAb from hybridoma E60 (obtained from M. Diamond at Washington University), followed by horseradish peroxidase-conjugated goat anti-mouse immunoglobulin (Pierce, Rockford, IL), and developed using AEC chromogen substrate (Dako, Carpinteria, CA). Results are expressed as the average of at least two independent trials with three replicates each. IC50 values were determined using variable slope sigmoidal dose-response curve fits with GraphPad Prism 4.0 software (LaJolla, CA), except for DN81opt, which was determined graphically due to a lack of data points to produce a reasonable curve fit.

LLC-MK2 cells = format: cell-based, Macaca mulatta
Description: Cytotoxicity of peptides was measured by monitoring mitochondrial reductase activity using the TACS™ MTT cell proliferation assay (R&D Systems, Inc., Minneapolis, MN) according to the manufacturer's instructions. Dilutions of peptides in serum-free DMEM were added to confluent monolayers of LLC-MK2 cells in 96-well plates for 1 h at 37°C, similar to the focus forming inhibition assays, and incubated at 37°C with 5% (v/v) CO2 for 24 h. Absorbance at 560 nm was measured using a Tecan GeniosPro plate reader (Tecan US, Durham, NC).

[3] = molecular target: T1, purified, recombinant, 80% truncated DENV-2 S1 E protein (Dengue virus type 2, UniProt P12823); assay: biochemical; format: binding, DENV-2 strain S1; details: for kon: read-out: association rate constant ka; for koff: read-out: dissociation rate constant kd
T1 construct: Purified, recombinant, 80% truncated DENV-2 S1 E protein was obtained from Hawaii Biotechnology; purchased Hawaii Biotechnology (Honolulu, HI)
Description: Real time binding assays between peptides and purified DENV-2 S1 E protein were performed using biolayer interferometry on an Octet QK system (Fortebio, Menlo Park, CA). This system monitors interference of light reflected from the surface of a fiber optic sensor to measure the thickness of molecules bound to the sensor surface. Purified, recombinant, 80% truncated DENV-2 S1 E protein was obtained from Hawaii Biotechnology (Honolulu, HI). Peptides were N-terminally biotinylated with a 5∶1 molar ratio of NHS-LC-LC-Biotin (Pierce/ThermoFisher, Rockford, IL) in PBS pH 6.5 at 4°C. Excess biotinylation reagent was removed using Pepclean C-18 spin columns (Pierce/ThermoFisher, Rockford, IL). Biotinylated peptides were coupled to kinetics grade streptavidin high binding biosensors (Fortebio, Menlo Park, CA) at several different concentrations. Sensors coated with peptides were allowed to bind to E protein in PBS with 0.02% (v/v) Tween-20 and 1 mg/ml BSA at several different E protein concentrations. Binding kinetics were calculated using the Octet QK software package, which fit the observed binding curves to a 1∶1 binding model to calculate the association rate constants. E protein was allowed to dissociate by incubation of the sensors in PBS. Dissociation curves were fit to a 1∶1 model to calculate the dissociation rate constants. Binding affinities were calculated as the kinetic dissociation rate constant divided by the kinetic association rate constant.

DENV-2 strain NG-C [4] = details: cited from earlier work; for DENV inhibitory activity of wild type mimic peptides (in words): previous work; for IC50: previously tested wild type peptides denoted with an asterisk, read-out: IC50 (did not achieve 50% inhibition), previously tested wild type peptides
Description: Table 1 Sequences and IC50 values of peptides. | column: IC50 (µM) || We had previously identified several E protein regions where peptides mimicking the E protein sequence might function as inhibitors. […] These included a peptide derived from the domain II fusion sequence (DN80, corresponding to amino acids 96–114 in the DENV-2 E protein) and two overlapping peptides derived from the domain II hinge region (DN57 and DN81, corresponding to amino acids 205–223 and 205–232, respectively). Predictions from crystal structures, [14], [15], as well as the previously confir ...

[5] = FFU reduction, DENV-2 NG-C on LLC-MK2 cells, dashed line = tested, 50% inhibition not achieved, read-out: IC50 (did not achieve 50% inhibition)
[6] = MTT, confluent LLC-MK2, 24 h post-exposure, any concentration tested, one-way ANOVA, P>0.05

heparan sulfate
virus:cell binding [1]: reduced cell binding

QQCFRFPALRKKATYTRFWI [1OAN1-scram, scrambled version of 1OAN1 of identical composition]
IC50 (DENV-2 strain NG-C [2]; [5]): > 50 µM | inhibition of DENV-2 infection (in words) (DENV-2 strain NG-C [2]; FFU reduction): did not inhibit infection by DENV-2 at any concentration tested | cellular toxicity (LLC-MK2 cells; [6]): not toxic at any concentration tested

RWMVWRHWFHRLRLPYNPGKNKQNQQWP [DN57opt]
IC50 (DENV-2 strain NG-C [2]; -2 strain NG-C, 1 h): 8 ± 1 µM | maximum inhibition (DENV-2 strain NG-C [2]; -2 strain NG-C, 20 µM): 97% | Kd [3]: 1.2 µM | kon [3]: 800 M⁻¹ s⁻¹ | koff [3]: 0.00077 s⁻¹ | cellular toxicity (LLC-MK2 cells): mildly toxic

EWSKHREGRWHTALTGATEI [1OAN3, de novo designed peptide, E protein region 251–270]
IC50 (DENV-2 strain NG-C [2]; [5]): > 50 µM

AWLVHRQWFLDLPLPWLPG [DN81wt, previously tested wild type peptide from the domain II hinge region]
DENV inhibitory activity of wild type mimic peptides (in words) (DENV-2 strain NG-C [4]): did not show substantial DENV inhibitory activity | IC50 (DENV-2 strain NG-C [4]): > 50 µM

RWRHLKKMQRLQPRNPNWPGQFWVHYNW [DN57opt-scram, scrambled version of DN57opt of identical composition]
IC50 (DENV-2 strain NG-C [2]; [5]): > 50 µM | inhibition of DENV-2 infection (in words) (DENV-2 strain NG-C [2]; FFU reduction): did not display inhibition at any concentration tested | cellular toxicity (LLC-MK2 cells; [6]): not toxic at any concentration tested

YPENLEYRVYITPHPGEEHH [1OAN2, de novo designed peptide, E protein region 131–150]
IC50 (DENV-2 strain NG-C [2]; [5]): > 50 µM

AWLVHTQWFLDLPLPWLPGADTQGSNWI [DN57wt, previously tested wild type peptide from the DENV-2 E domain II hinge region]
DENV inhibitory activity of wild type mimic peptides (in words) (DENV-2 strain NG-C [4]): did not show substantial DENV inhibitory activity | IC50 (DENV-2 strain NG-C [4]): > 50 µM

WHTVEPIVTEKDRPVNYEWE [1OAN4, de novo designed peptide, E protein region 351–370]
IC50 (DENV-2 strain NG-C [2]; [5]): > 50 µM

RQMRAWGQDYQHGGMGYSC [DN81opt]
IC50 (DENV-2 strain NG-C [2]; -2 strain NG-C, 1 h): 36 ± 6 µM | maximum inhibition (DENV-2 strain NG-C [2]; -2 strain NG-C, 50 µM): 57%

FWFTLIKTQAKQPARYRRFC [1OAN1]
IC50 (DENV-2 strain NG-C [2]; -2 strain NG-C, 1 h): 7 ± 4 µM | maximum inhibition (DENV-2 strain NG-C [2]; -2 strain NG-C, 50 µM): 99% | Kd [3]: 0.45 µM | kon [3]: 3900 M⁻¹ s⁻¹ | koff [3]: 0.0016 s⁻¹ | cellular toxicity (LLC-MK2 cells; [6]): not toxic at any concentration tested

MVIVQHQWMQIMRWPWQPE [DN80opt]
IC50 (DENV-2 strain NG-C [2]; [5]): > 50 µM
